Measured values reported in ChEMBL document CHEMBL1201862, “PubChem BioAssay data set” (2004).
The source made the active and inactive calls.

Columns and labels:
HEK293 [1] = experiment: EBV LMP1 TES2 canonical NF-kB signalling blockers – cell-based, HEK293, luciferase, cherry-pick, dose response (AID 588343); assay type: functional; conditions: Homo sapiens
HEK293 [2] = experiment: inhibition of NOD1-driven NF-kB reporter – cell-based, luminescence, uHTS, primary screen (AID 1578); assay type: functional; conditions: Homo sapiens
HEK293 [3] = experiment: cells; assay type: functional, cell-based; conditions: Homo sapiens
HEK293 [4] = experiment: cells; assay type: functional, cell-based; conditions: Homo sapiens; remark: listed apart in the source
[5] = biological target: Nucleotide-binding oligomerization domain-containing protein 2 (Homo sapiens, UniProt Q9HC29); experiment: inhibition of NOD2-driven NF-kB reporter – cell-based, luminescence, uHTS, HEK293 (AID 1566); assay type: functional
Sequence of Nucleotide-binding oligomerization domain-containing protein 2 (Q9HC29 whole entry, the tested form may be a part): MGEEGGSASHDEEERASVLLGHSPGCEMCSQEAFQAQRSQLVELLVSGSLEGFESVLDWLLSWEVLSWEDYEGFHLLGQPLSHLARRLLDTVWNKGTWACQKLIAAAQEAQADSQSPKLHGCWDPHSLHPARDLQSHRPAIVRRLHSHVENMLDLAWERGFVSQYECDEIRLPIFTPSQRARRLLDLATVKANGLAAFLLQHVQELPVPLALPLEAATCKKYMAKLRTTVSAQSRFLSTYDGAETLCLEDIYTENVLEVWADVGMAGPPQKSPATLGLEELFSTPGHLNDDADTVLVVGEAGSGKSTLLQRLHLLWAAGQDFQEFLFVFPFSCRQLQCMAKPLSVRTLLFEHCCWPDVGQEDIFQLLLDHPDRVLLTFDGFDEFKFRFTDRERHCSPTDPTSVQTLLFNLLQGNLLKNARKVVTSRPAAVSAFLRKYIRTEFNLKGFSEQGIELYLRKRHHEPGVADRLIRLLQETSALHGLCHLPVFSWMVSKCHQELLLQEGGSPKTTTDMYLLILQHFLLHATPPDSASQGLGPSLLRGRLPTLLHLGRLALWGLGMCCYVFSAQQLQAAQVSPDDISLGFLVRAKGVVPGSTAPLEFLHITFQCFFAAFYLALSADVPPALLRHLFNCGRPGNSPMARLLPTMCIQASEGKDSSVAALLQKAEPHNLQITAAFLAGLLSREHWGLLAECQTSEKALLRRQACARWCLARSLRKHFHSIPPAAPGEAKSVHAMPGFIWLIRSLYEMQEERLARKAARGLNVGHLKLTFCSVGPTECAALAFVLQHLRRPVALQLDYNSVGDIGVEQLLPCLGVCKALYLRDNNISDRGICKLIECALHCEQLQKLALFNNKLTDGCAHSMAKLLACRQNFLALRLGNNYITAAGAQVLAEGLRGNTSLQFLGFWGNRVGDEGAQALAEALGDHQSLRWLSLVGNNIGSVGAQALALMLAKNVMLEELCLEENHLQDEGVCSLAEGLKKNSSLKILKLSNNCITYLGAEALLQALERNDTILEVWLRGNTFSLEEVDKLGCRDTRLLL

HEK293 [6] = experiment: NOD2 signaling inhibitors in MDP-stimulated cells, cell-based, uHTS, luminescence (AID 2001); assay type: functional; conditions: Homo sapiens
HEK293 [7] = experiment: cells; assay type: functional, cell-based; conditions: Homo sapiens; remark: listed apart in the source
[8] = Luminescence Cell-Based Dose Confirmation HTS to Identify Activators of 5'UTR Stem-Loop Driven Alpha-Synuclein mRNA Translation in H4 Neuroglioblastoma Cells. [Related pubchem assays: 1829 (Project Summary), 1814 (Primary HTS)]; assay type: functional
[9] = Luminescence Cell-Based Dose Response HTS to Identify Activators of Luciferase Translation or Activity in H4 […] Cells. [Related pubchem assays: 1829 (Project Summary), 1814 (Primary HTS)]; assay type: functional
H4 = experiment: Luminescence Cell-Based Dose Response HTS to Identify Activators of 5'UTR Stem-Loop Driven Prion Protein mRNA Translation in H4 Neuroglioblastoma Cells. [Related pubchem assays: 1829 (Project Summary), 1814 (Primary HTS)]; assay type: functional; conditions: Homo sapiens
[10] = biological target: T1, Adenosylmethionine-8-amino-7-oxononanoate aminotransferase (Mycobacterium tuberculosis, UniProt P9WQ81); experiment: Mycobacterium tuberculosis BioA enzyme inhibitor Measured in Biochemical System Using Plate Reader - 2163-02_Inhibitor_Dose_CherryPick_Activity.; assay type: functional, Mycobacterium tuberculosis UT205
T1 sequence (P9WQ81 whole entry): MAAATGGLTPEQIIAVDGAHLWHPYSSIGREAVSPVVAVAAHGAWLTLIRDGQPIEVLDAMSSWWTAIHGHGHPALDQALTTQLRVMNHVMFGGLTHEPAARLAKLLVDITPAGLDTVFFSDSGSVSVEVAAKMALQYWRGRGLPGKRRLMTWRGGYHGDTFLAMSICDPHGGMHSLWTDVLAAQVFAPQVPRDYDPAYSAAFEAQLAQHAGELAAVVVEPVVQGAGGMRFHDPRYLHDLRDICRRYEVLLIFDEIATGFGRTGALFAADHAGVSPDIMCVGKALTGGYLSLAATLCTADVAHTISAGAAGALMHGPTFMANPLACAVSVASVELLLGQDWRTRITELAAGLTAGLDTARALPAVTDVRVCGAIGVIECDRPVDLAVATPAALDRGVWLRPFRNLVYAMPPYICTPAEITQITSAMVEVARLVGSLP

Cytochrome P450 2C9 = Cytochrome P450 2C9 (Homo sapiens, UniProt P11712)
Sequence of Cytochrome P450 2C9 (P11712 whole entry): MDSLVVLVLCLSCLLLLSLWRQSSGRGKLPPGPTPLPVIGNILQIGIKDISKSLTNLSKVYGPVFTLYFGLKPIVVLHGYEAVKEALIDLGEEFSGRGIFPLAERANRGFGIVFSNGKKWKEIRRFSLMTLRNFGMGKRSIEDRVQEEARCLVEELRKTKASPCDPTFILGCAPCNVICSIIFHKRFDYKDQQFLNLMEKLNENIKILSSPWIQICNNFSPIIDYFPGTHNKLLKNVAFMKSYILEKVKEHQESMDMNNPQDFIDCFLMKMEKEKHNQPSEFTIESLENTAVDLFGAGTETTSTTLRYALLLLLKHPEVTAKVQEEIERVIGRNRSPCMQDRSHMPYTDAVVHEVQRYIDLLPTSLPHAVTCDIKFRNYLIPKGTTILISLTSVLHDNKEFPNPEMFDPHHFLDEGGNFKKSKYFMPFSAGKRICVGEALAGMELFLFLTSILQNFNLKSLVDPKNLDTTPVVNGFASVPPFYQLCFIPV

[11] = viability of uninfected HEp-2 cells – cell-based, HTS, cytotoxicity control for RSV inhibitor project, dose response (AID 2410); assay type: functional; conditions: human respiratory syncytial virus
[12] = Trypanosoma cruzi growth suppression in host cells – NIH3T3 host cells, beta-gal luminescence, confirmation (AID 2044); assay type: functional, cell-based;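 note: intracellular parasites grown in NIH/3T3 mouse fibroblasts as host cells; luminescent beta-galactosidase reporter signal from transgenic T. cruzi replicating inside host cells; inhibitors lower the luminescence signal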
[13] = NIH3T3 cell viability loss – ATP luminescence, mouse fibroblasts, counter-screen, dose response (AID 2010); assay type: functional, cell-based;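 note: cells exposed to compound for about 90 hours before reading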
[14] = biological target: DNA dC->dU-editing enzyme APOBEC-3A (Homo sapiens, UniProt P31941); experiment: Dose Response confirmation of small molecule APOBEC3A DNA Deaminase Inhibitors via a fluorescence-based single-stranded DNA deaminase assay. [Related pubchem assays (depositor defined):AID493011, AID493024]; assay type: functional
Sequence of DNA dC->dU-editing enzyme APOBEC-3A (P31941 whole entry): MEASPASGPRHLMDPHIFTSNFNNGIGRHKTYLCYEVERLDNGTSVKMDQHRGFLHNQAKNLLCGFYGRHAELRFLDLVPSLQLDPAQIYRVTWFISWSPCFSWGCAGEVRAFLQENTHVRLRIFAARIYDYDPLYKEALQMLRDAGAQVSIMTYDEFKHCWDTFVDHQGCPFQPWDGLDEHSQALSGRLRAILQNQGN

[15] = biological target: DNA dC->dU-editing enzyme APOBEC-3G (Homo sapiens, UniProt Q9HC16); assay type: functional;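 note: Dose-response counterscreen measuring inhibition of APOBEC3G DNA deaminase activity, run while confirming APOBEC3A inhibitors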
Sequence of DNA dC->dU-editing enzyme APOBEC-3G (Q9HC16 whole entry, the tested form may be a part): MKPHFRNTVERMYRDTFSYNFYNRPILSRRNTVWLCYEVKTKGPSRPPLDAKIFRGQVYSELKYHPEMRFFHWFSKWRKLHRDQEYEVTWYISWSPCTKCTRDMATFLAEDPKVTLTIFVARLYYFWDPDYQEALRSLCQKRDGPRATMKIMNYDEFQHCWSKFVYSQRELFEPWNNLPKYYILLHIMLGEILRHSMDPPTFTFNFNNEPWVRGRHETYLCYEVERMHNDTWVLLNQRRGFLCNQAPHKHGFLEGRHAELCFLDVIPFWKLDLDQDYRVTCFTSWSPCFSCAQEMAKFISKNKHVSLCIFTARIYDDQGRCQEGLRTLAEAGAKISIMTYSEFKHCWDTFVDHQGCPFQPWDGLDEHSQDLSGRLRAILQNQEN

[16] = biological target: T2, Carboxy-terminal domain RNA polymerase II polypeptide A small phosphatase 1 (Homo sapiens, UniProt Q9GZU7); experiment: CTDSP1 inhibitors, concentration-response, biochemical, absorbance readout, ultra-high-throughput screen actives (AID 540297); assay type: functional
T2 sequence (Q9GZU7 whole entry): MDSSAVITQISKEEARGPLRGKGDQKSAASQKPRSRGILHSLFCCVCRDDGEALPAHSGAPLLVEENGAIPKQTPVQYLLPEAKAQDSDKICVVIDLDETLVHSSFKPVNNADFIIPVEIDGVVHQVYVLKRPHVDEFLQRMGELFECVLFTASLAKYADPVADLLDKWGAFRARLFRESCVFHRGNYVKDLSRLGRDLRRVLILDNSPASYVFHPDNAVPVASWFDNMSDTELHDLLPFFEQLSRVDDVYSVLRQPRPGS

[17] = viability of PTEN-deleted HCT116 cells – cell-based, HCT116 PTEN knockout, dose response (AID 1047); assay type: functional;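 note: HCT116 colon tumor cells with PTEN knocked out; cells exposed to compound for 60 hours before readout; potency for loss of cell viability measured by luminescence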
[18] = viability of HCT116 lacking mutant beta-catenin – cell-based, human colon tumor, dose response (AID 1045); assay type: functional;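 note: HCT116 colon tumor cells with beta catenin knocked out; cells exposed to compound for 60 hours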
Vero = experiment: cells; assay type: functional; conditions: Chlorocebus sabaeus
P388/ADR = experiment: cells; assay type: functional; conditions: Mus musculus
SN12K1 = experiment: cells; assay type: functional; conditions: Homo sapiens
P388 = experiment: cells; assay type: functional; conditions: Mus musculus

With Cc1cc(C)n(C2CCCCC2OC(=O)c2ccccc2F)n1 (stereo not given) the AC50 (HEK293 [1]) was > 350 µM (inactive).
With CCOC(=O)C1CCN(S(=O)(=O)c2ccc3c(c2)N(C(C)=O)CC(C)S3)CC1 (stereo not given) the EC50 (HEK293 [2]) was 7.03 µM (active), the IC50 (HEK293 [3]) was 19.7 µM (active) and the IC50 (HEK293 [4]) was > 20 µM (inactive). The EC50 [5] was > 20 µM (inactive), the IC50 (HEK293 [6]) was > 20 µM (inactive) and the IC50 (HEK293 [7]) was > 20 µM (inactive).
With C#CCSc1nnc(-c2sc(-c3ccccc3)nc2C)n1C the EC50 [8] was > 120 µM (not active), the EC50 [9] was 48.9 µM (active) and the EC50 (H4) was 16.9 µM (active). The AC50 [10] was 2.88 µM (active) and the AC50 (Cytochrome P450 2C9) was 17.8 µM (inconclusive).
With Cc1ccc(Nc2c([N+](=O)[O-])nn(-c3ccc4c(c3)OCCO4)[n+]2[O-])cc1F the EC50 (HEK293 [2]) was > 20 µM (inactive), the IC50 (HEK293 [3]) was 0.842 µM (active) and the IC50 (HEK293 [4]) was > 20 µM (inactive). For the same compound, the EC50 [5] was > 20 µM (inactive), the IC50 (HEK293 [6]) was > 20 µM (inactive) and the IC50 (HEK293 [7]) was > 20 µM (inactive). For the same compound, the AC50 (HEK293 [1]) was 0.538 µM (active).
For CC(=O)c1cccc(NS(=O)(=O)c2ccc(NC(=O)N3CCCCC3)cc2)c1, the EC50 (HEK293 [2]) was 3.33 µM (active), the IC50 (HEK293 [3]) was 14.3 µM (active) and the IC50 (HEK293 [4]) was > 20 µM (inactive). The EC50 [5] was 15.6 µM (active), the IC50 (HEK293 [6]) was 11.3 µM (inactive) and the IC50 (HEK293 [7]) was > 20 µM (inactive).
With Cc1nc2nc(SCC(=O)NCc3ccco3)nn2c(C)c1Cc1ccccc1 the AC50 [10] was 0.704 µM (active).
In the case of Cc1cccc(N2CCN(C(=O)CCCCCn3c(=S)[nH]c4ccc(N5CCOCC5)cc4c3=O)CC2)c1C, the CC50 [11] is reported as 26.4 µM (active), the EC50 (HEK293 [2]) is reported as 15.1 µM (active) and the IC50 (HEK293 [3]) is reported as > 20 µM (inactive). For the same compound, the IC50 (HEK293 [4]) was > 20 µM (inactive), the EC50 [5] was 11.9 µM (active) and the IC50 (HEK293 [6]) was 11.9 µM (inactive). For the same compound, the EC50 [12] was 1.56 µM (active), the IC50 (HEK293 [7]) was > 20 µM (inactive) and the EC50 [13] was > 60 µM (not active).
For N#C/C(=C/c1ccc(OCc2ccc(C(=O)O)cc2)cc1)C(=O)Nc1ccccc1, the IC50 [14] was 1.75 µM (active), the IC50 [15] was 2.36 µM (active) and the IC50 [16] was 5.32 µM (active).
For O=[N+]([O-])CC(c1ccc(Br)cc1)c1c(O)n[nH]c1-c1ccccc1O (stereo not given), the CC50 [11] was 10.3 µM (active), the EC50 [17] was 9 µM (active) and the EC50 [18] was 6.72 µM (active). For the same compound, the CC50 (Vero) was 14.2 µM (active).
In the case of CCn1c2ccccc2c2cc(/C=C(/C#N)C(N)=S)ccc21, the AC50 (HEK293 [1]) is reported as 1.21 µM (active).
For CSc1ccc(S(=O)(=O)N2CCC(C(=O)Nc3cccnc3)CC2)cc1, the AC50 [10] was 0.807 µM (active).
For Nc1ccn(C2OC(CO)C(O)C2O)c(=O)n1 (stereo not given), the GI50 (P388/ADR) was 0.05 µM (active), the GI50 (SN12K1) was 0.07 µM (active) and the GI50 (P388) was 0.05 µM (active).
For CC(=O)OCc1cc(=O)n(C)c2c3c4c(cc12)c(C)cc(=O)n4CO3, the GI50 (P388/ADR) was 0.531 µM (active), the GI50 (SN12K1) was 0.843 µM (active) and the GI50 (P388) was 0.344 µM (active).
For CCCCC1(C2c3ccccc3Oc3ccccc32)C(=O)N(c2ccccc2)N(c2ccccc2)C1=O, the GI50 (P388/ADR) was 17.6 µM (inactive), the GI50 (SN12K1) was 34.8 µM (inactive) and the GI50 (P388) was 9.82 µM (inactive).
In the case of CN1c2ccc(-c3cccc(F)c3)cc2[C@H]2[C@H](CCN2C(=O)C2CCOCC2)[C@H]1CO, the AC50 [10] is reported as 0.108 µM (active).
With NCCCNCCSP(=O)(O)O [AMIFOSTINE] the GI50 (P388/ADR) was 84.3 µM (inactive), the GI50 (SN12K1) was > 667 µM (inactive) and the GI50 (P388) was 54.6 µM (inactive).
In the case of Cn1c(/C=C/CO)c(CO)c2c1C(=O)C=C(N1CC1)C2=O [APAZIQUONE], the GI50 (P388/ADR) is reported as 0.506 µM (active), the GI50 (SN12K1) is reported as 0.0102 µM (active) and the GI50 (P388) is reported as 0.94 µM (active).
